Like-named read-outs stand apart in the source and are kept apart here. Numbered stars: 1 amine (or outer) side, 2 acyl side, 3 side chain; on linkers, the order of the positions; unused ones are H or OH. Square brackets hold non-standard residues; d marks the D form. Peptide text beside a SMILES is read from it. X1 = O=C([C@H]1[C@@H](c2ccccc2)CCN1[*:1])[*:2]; X2 = O=C([C@@H]1[C@H](c2ccccc2)CCN1[*:1])[*:2]; dAla(4-thiazolyl) = N[C@H](Cc1cscn1)C(=O)O; Tic(7-OH) = O=C(O)[C@@H]1Cc2ccc(O)cc2CN1; Phe(4-NH2) = Nc1ccc(C[C@H](N)C(=O)O)cc1; Phe(4-F) = N[C@@H](Cc1ccc(F)cc1)C(=O)O; hCha = N[C@@H](CCC1CCCCC1)C(=O)O
Experiments:
[1] = In vitro bovine BBB cell-based model transport assay; details: bovine, 200 μM peptide in Ringer-HEPES, 2 h, 37 °C, mean ± SD, n = 3
Procedure: (§1) Peptides were evaluated through an in vitro bovine BBB cell-based model (Fig. 2a). Transport (T) and permeability (Papp) for all peptides were quantified by RP-HPLC-PDA and by MALDI-TOF MS (Fig. 2). The former method determined transport by applying the ratio between the peak areas integrated in the chromatograms from the acceptor and donor wells, further corrected by the volumes injected and the volumes contained in each well (see Eq. 1). The latter entails the spiking of the heavy version of the peptide as internal standard into an aliquot of the light peptide (Fig. 2b). The MS intensity for light/heavy ratios for acceptor and donor wells is representative of the relative amount of peptide in each well when corrected by their volume (detailed in Eq. 2).1 T=QAI(t)/QDI(t0)×VDI/VAI×VAW/VDW×100(%) where QAI(t) and QDI(t0) account for the integrated area in the HPLC chromatograms of acceptor (at time t = 2 h) and donor (at time t0 = 0) wells, respectively; VDI and VAI are the injected volumes from donor and acceptor wells, respectively; and VAW and VDW are the volumes in each acceptor and donor well, respectively.2 T=QALight(t)/Q^Heavy/QDLight(t0)/(R×Q^Heavy)×VAW/VDW×100(%) QALight(t)/Q^Heavy accounts for the relative amount of the light peptide in the acceptor well (at time t) compared with a prepared dilution of the heavy isomer (at 2 μM). QDLight(t0)/(R×Q^Heavy) determines the relative amount of light peptide in the donor well (at time t = 0) compared with a prepared dilution of the heavy isomer (at 200 μM; i.e. in our case R = 100).
(§2) In general, transport (see Eq. 3) can be described by the total amount of peptide in the acceptor well at time t, QA(t) , divided by the initial amount in the donor well, QD(t0) , while apparent permeability (Papp), widely used in the literature, normalizes transport by the transwell area, volume in donor well and time (see Eq. 4). […] In these cases, an approximate value was determined.
(§3) This assay was an adapted model[5] of the method previously published by Gaillard and de Boer[49]. Before performing the assay, TEER was measured in all transwells (TEER > 100 Ω·cm^2). […] The apical compartment was filled with 200 μL of the solution containing the peptide, and 800 µL of Ringer-HEPES was poured into the basal well. Three replicates of each peptide were assayed. The plate was left for 2 h in the incubator at 37 °C. Finally, the samples were collected and analyzed or frozen until analysis. LY fluorescence was measured in a 96-well plate with a Fluoroskan Ascent Microplate Fluorometer (Thermo Fisher Scientific). Two parameters were determined, namely transport (T (%)) and apparent permeability (Papp(cm/s)). RP-HPLC-PDA (220 nm) and MALDI-TOF MS were used to determine the amounts of peptide in each sample.
(§4) Transport was calculated using Eq. 2. […] Peak-picking and determination of peak area ratios was performed using Data Explorer version 4.5 (Applied Biosystems).

[2] = tested on: in vitro bovine BBB cell-based model; test: as above; details: for Transport (%) MALDI-TOF MS / Transport (%) RP-HPLC-PDA: 200 μM peptide in Ringer-HEPES, 2 h, 37 °C, mean ± SD, n = 3; for Transport (%) MALDI-TOF MS: quantified by MALDI-TOF MS with heavy internal standard; for Transport (%) RP-HPLC-PDA: quantified by RP-HPLC-PDA (220 nm), some values approximate (below LOQ); for Increase in transport compared to the parent peptide (1 L): bovine BBB model, MALDI-TOF MS quantification, transport normalized by parent peptide 1 L
Procedure: as §1, §2, §3, §4

[3] = tested on: in vitro human model of the BBB (brain-like endothelial cells from human cord blood-derived hematopoietic stem cells co-cultured with bovine pericytes); test: In vitro human BBB cell-based model transport assay
Procedure: The aforementioned peptides were assayed as in the other BBB model using either Ringer-HEPES buffer (the one commonly used in these assays) or supplemented ECM medium. The use of medium in this assay allows (1) the extension of the incubation time and (2) the use of more similar conditions to those found physiologically.
Endothelial cells and pericytes were defrosted in gelatin-coated Petri dishes (Corning). Pericytes and endothelial cells were cultured in DMEM pH 6.8 or in supplemented endothelial cell growth medium (Sciencells), respectively. After 48 h, pericytes (50,000 cells/well) and endothelial cells (80,000 cells/well) were seeded in gelatin-coated 12-well plates or in Matrigel-coated 12-well Transwell inserts (Corning), respectively. Medium was changed every 2–3 days and assays were performed 7–8 days after seeding. […] LY fluorescence was measured in a 96-well plate with a Fluoroskan Ascent Microplate Fluorometer (Thermo Fisher Scientific). Compounds were dissolved in Ringer-HEPES at a concentration of 200 µM. Then, 500 µL of the compound and 1,500 µL of Ringer-HEPES alone were introduced in the apical or in the basolateral compartments, respectively. The plates were set on at 37 °C for 2 h. The solutions from both compartments were then recovered and quantified by HPLC and identified by MALDI-TOF.

[4] = Peptide stability in human serum; assay type: in vitro ADME; details: for Protease resistance (in human serum): result in words
Procedure: Peptides were dissolved in 1 mL of HBSS buffer/human serum (from human male AB plasma; Sigma-Aldrich) 10:90 (v/v) at a final concentration of 200 µM and incubated at 37 °C for 24 h. Aliquots of 50 µL were extracted at a range of incubation times and treated with 200 µL of cold CH3OH (4 °C) to precipitate serum proteins. After 30 min, samples were centrifuged at 13,000 g and 4 °C for 30 min. Supernatants were analyzed by RP-HPLC-PDA and MALDI-TOF MS, using similar procedures as for the quantification of the in vitro cell-based BBB model.

[5] = Parallel artificial membrane permeability assay (PAMPA); assay type: in vitro ADME; details: pig, porcine brain polar lipid extract
Procedure: Passive diffusion was ruled out as the mechanism responsible for transport when the peptides (1 L, 6D, 7 − D and 8D) were assayed by PAMPA, an in vitro physico-chemical model where the transport by passive diffusion of compounds is evaluated through a membrane containing the lipid composition of interest (in our case, a porcine brain polar lipid extract (BPLE) to mimic the BBB lipid barrier). […] Note that when these values fall below 2.0 × 10^−6 cm/s compounds are considered to be poorly transported by passive diffusion.
The PAMPA assay was used to exclude passive diffusion capacity across the BBB. The standard parameter that quantifies transport independently of time and concentrations is effective permeability, Pe=−218.3/tLog(1−2CA(t)/CD(t0))×10^−6cm/s; where t is the running time (4 h), CA (t) is the concentration of the compound in the acceptor well at time t, and CD (t0) is the compound concentration in the donor well before running the PAMPA assay (t0 = 0 h). […] The protocol followed was the same as that previously used by Arranz-Gibert et al.[1]. Permeability is considered excellent with values >4.0 × 10^−6) cm/s, uncertain between 2.0 × 10^−6 and 4.0 × 10^−6 cm/s, and poor with values below 2.0 × 10^−6) cm/s[41].

[6] = Papp MALDI-TOF MS, quantified by MALDI-TOF MS with heavy internal standard
[7] = Papp RP-HPLC-PDA, quantified by RP-HPLC-PDA (220 nm)
[8] = 4 h, n = 3, values are Pe · 10^6, read-out: Pe · 10^6 (effective permeability)
[9] = read-out: Permeability values (PAMPA), bound in the text

Molecule | Papp at 2 h, 200 μM [1, 6] [×10⁻⁶ cm/s] | Papp at 2 h, 200 μM [1, 7] [×10⁻⁶ cm/s] | Transport (%) MALDI-TOF MS [2] [%] | Transport (%) RP-HPLC-PDA [2] [%] | Increase in transport compared to the parent peptide (1 L) [2] | Transport relative to the parent peptide 1 L (HAI), buffer ([3]; human BBB model, Ringer-HEPES buffer) | Transport relative to the parent peptide 1 L (HAI), medium ([3]; human BBB model, supplemented ECM medium) | Protease resistance (in human serum) [4] | Papp at 4 h [5, 8] [×10⁻⁶ cm/s] | Papp at 4 h [5, 9] [×10⁻⁶ cm/s] | Papp of Lucifer yellow (control) ([2]; 20 μM Lucifer yellow lithium salt as control in Ringer-HEPES) | Papp of Lucifer Yellow (internal control) ([3]; 50 µM Lucifer Yellow as internal control) | half-life at 200 µM ([4]; male, HBSS buffer/human serum 10:90 (v/v), 200 µM, 37 °C, 24 h, non-linear regression, read-out: t1/2 in human serum (converted)) [h]
CC[C@@H](C)[C@@H](NC(=O)[C@@H](Cc1ccc(O)cc1)NC(=O)[C@H]1[C@@H](c2ccccc2)CCN1C(=O)[C@@H](CCCNC(=N)N)NC(=O)[C@@H](Cc1c[nH]cn1)NC(C)=O)C(=O)N[C@H](C)C(=O)N[C@H](Cc1c[nH]cn1)C(N)=O [Peptide 7-D, Ac-hrxyiah-NH2] (Ac-[dH][dR][X1][dY][dI][dA][dH]-NH2) | 6 ± 2 | 4.8 ± 1.5 | 7 ± 3 | 5.7 ± 1.8 | two-fold | around 1.5 fold | eight- | high resistance to protease degradation | 0.33 | < 0.4 |  |  | 
CC[C@H](C)[C@H](NC(=O)[C@H](C)NC(=O)[C@H](Cc1c[nH]cn1)NC(C)=O)C(=O)N1Cc2cc(O)ccc2C[C@H]1C(=O)N1CCC[C@H]1C(=O)N[C@@H](CCCNC(=N)N)C(=O)N[C@@H](Cc1c[nH]cn1)C(N)=O [Peptide 3L, Ac-HAIxPRH-NH2] (Ac-HAI[Tic(7-OH)]PRH-NH2) | 2.1 ± 1 | 1.7 ± 0.6 | 2.5 ± 1.2 | 2.0 ± 0.8 |  |  |  |  |  |  |  |  | 
CC[C@@H](C)[C@@H](NC(=O)[C@@H](Cc1ccc(O)cc1)NC(=O)[C@H]1CCCN1C(=O)[C@@H](CCCNC(=N)N)NC(=O)[C@@H](Cc1cscn1)NC(C)=O)C(=O)N[C@H](C)C(=O)N[C@H](Cc1c[nH]cn1)C(N)=O [Peptide 9D, Ac-xrpyiah-NH2] (Ac-[dAla(4-thiazolyl)][dR][dP][dY][dI][dA][dH]-NH2) | 2.4 ± 1 | 3.7 ± 0.4 | 2.9 ± 1.2 | 4.4 ± 0.5 |  |  |  |  |  |  |  |  | 
CC[C@H](C)[C@H](NC(=O)[C@H](C)NC(=O)[C@H](Cc1c[nH]cn1)NC(C)=O)C(=O)N[C@@H](Cc1ccc(N)cc1)C(=O)N1CCC[C@H]1C(=O)N[C@@H](CCCNC(=N)N)C(=O)N[C@@H](Cc1c[nH]cn1)C(N)=O [Peptide 4L, Ac-HAIxPRH-NH2] (Ac-HAI[Phe(4-NH2)]PRH-NH2) | 1.8 ± 0.4 | 1.6 ± 0.8 | 2.1 ± 0.5 | 2.0 ± 0.9 |  |  |  |  |  |  |  |  | 
Lucifer yellow (LY) lithium salt [reference compound] |  |  |  |  |  |  |  |  |  |  | < 17 ·10^−6 cm/s | < 15 ·10^−6 cm/s | 
CC[C@@H](C)[C@@H](NC(=O)[C@@H](Cc1ccc(O)cc1)NC(=O)[C@H]1CCCN1C(=O)[C@@H](CCCNC(=N)N)NC(=O)[C@@H](Cc1c[nH]cn1)NC(C)=O)C(=O)N[C@H](C)C(=O)N[C@H](Cc1c[nH]cn1)C(N)=O [Peptide 6D, Ac-hrpyiah-NH2] | 2.6 ± 0.7 | 4.5 ± 1.5 | 3.1 ± 0.9 | 5.3 ± 1.8 |  |  |  |  | 0.34 | < 0.4 |  |  | 
CC[C@@H](C)[C@@H](NC(=O)[C@@H](Cc1ccc(O)cc1)NC(=O)[C@@H]1[C@H](c2ccccc2)CCN1C(=O)[C@@H](CCCNC(=N)N)NC(=O)[C@@H](Cc1c[nH]cn1)NC(C)=O)C(=O)N[C@H](C)C(=O)N[C@H](Cc1c[nH]cn1)C(N)=O [7+D, Ac-hrxyiah-NH2] (Ac-[dH][dR][X2][dY][dI][dA][dH]-NH2) | 5.7 ± 1.9 | 5.7 ± 1 | 7 ± 2 | 6.8 ± 1.2 | two-fold |  |  |  |  |  |  |  | 
CC[C@H](C)[C@H](NC(=O)[C@H](C)NC(=O)[C@H](Cc1c[nH]cn1)NC(C)=O)C(=O)N[C@@H](Cc1ccc(F)cc1)C(=O)N1CCC[C@H]1C(=O)N[C@@H](CCCNC(=N)N)C(=O)N[C@@H](Cc1c[nH]cn1)C(N)=O [Peptide 5L, Ac-HAIxPRH-NH2] (Ac-HAI[Phe(4-F)]PRH-NH2) | 2.6 ± 1.3 | 2.9 ± 1.3 | 3.1 ± 1.6 | 3.4 ± 1.6 |  |  |  |  |  |  |  |  | 
CC[C@H](C)[C@H](NC(=O)[C@H](C)NC(=O)[C@H](Cc1c[nH]cn1)NC(C)=O)C(=O)N[C@@H](Cc1ccc(O)cc1)C(=O)N1CCC[C@H]1C(=O)N[C@@H](CCCNC(=N)N)C(=O)N[C@@H](Cc1c[nH]cn1)C(N)=O [Peptide 1L, Ac-HAIYPRH-NH2] | 3.2 ± 1.2 | 2.5 ± 1.1 | 3.8 ± 1.4 | 2.9 ± 1.4 |  |  |  |  | 0.18 | < 0.4 |  |  | 3.3
CC(=O)N[C@@H](Cc1c[nH]cn1)C(=O)N[C@@H](C)C(=O)N[C@@H](CCC1CCCCC1)C(=O)N[C@@H](Cc1ccc(O)cc1)C(=O)N1CCC[C@H]1C(=O)N[C@@H](CCCNC(=N)N)C(=O)N[C@@H](Cc1c[nH]cn1)C(N)=O [Peptide 2L, Ac-HAxYPRH-NH2] (Ac-HA[hCha]YPRH-NH2) | 2.8 ± 0.6 | 3.3 ± 0.7 | 3.4 ± 0.7 | 3.9 ± 0.9 |  |  |  |  |  |  |  |  | 
CC[C@@H](C)[C@@H](NC(=O)[C@@H](Cc1ccc(O)cc1)NC(=O)[C@H]1CCCCN1C(=O)[C@@H](CCCNC(=N)N)NC(=O)[C@@H](Cc1c[nH]cn1)NC(C)=O)C(=O)N[C@H](C)C(=O)N[C@H](Cc1c[nH]cn1)C(N)=O [Peptide 8D, Ac-hrxyiah-NH2] | 6.3 ± 0.8 | 6.1 ± 0.8 | 7.5 ± 1.0 | 7.2 ± 0.9 | two-fold |  |  | high resistance to protease degradation | 0.34 | < 0.4 |  |  | 
